US10596127B2, “Composition for reducing the frequency of urination, method of making and use thereof” (WELLESLEY PHARMACEUTICALS, LLC, priority 2013, dated 2020)

Columns and labels:
[1] = system: COX2 expression by normal human bladder smooth muscle cells; assay: Cell-based ELISA of total COX2 in normal human bladder smooth muscle cells; settings: for effect on the effect of carbachol and LPS on COX2 levels: LPS-induced responses: analgesic at either 5 μM or 50 μM
Method: COX2 responses were analyzed by a Cell-Based ELISA using Human/mouse total COX2 immunoassay (R&D Systems), following the instructions of the manufacturer. Briefly, after cells fixation and permeabilization, a mouse anti-total COX2 and a rabbit anti-total GAPDH were added to the wells of the clear-bottom black 96-well cell culture microculture plates. After incubation and washes, an HRP-conjugated anti-mouse IgG and an AP-conjugated anti-rabbit IgG were added to the wells. Following another incubation and set of washes, the HRP- and AP-fluorogenic substrates were added. Finally, a Victor® V multilabel plate reader (PerkinElmer) was used to read the fluorescence emitted at 600 nm (COX2 fluorescence) and 450 nm (GAPDH fluorescence). Results are expressed as relative levels of total COX2 as determined by relative fluorescence unit (RFUs) and normalized to the housekeeping protein GAPDH.
(§1) Normal human bladder smooth muscle cells were isolated by enzymatic digestion from macroscopically normal pieces of human bladder. Cells were expended in vitro by culture at 37° C. in a 5% CO2 atmosphere in RPMI 1640 supplemented with 10% fetal bovine serum, 15 mM HEPES, 2 mM L-glutamine, 100 U/ml penicillin, and […] of streptomycin and passage once a week by treatment with trypsin to detach cells followed by reseeding in a new culture flask. The first week of culture, the culture medium was supplemented with 0.5 ng/ml epidermal growth factor, 2 ng/ml fibroblast growth factor, and 5 μg/ml insulin.
(§2) […] When no other effectors were added to the cells, 50 μl of RPMI 1640 without fetal bovine serum were added to the wells to adjust the final volume to 200 μl.
(§3) After 24 hours of culture, 150 μl of culture supernatants were collected, spun down for 2 min at 8,000 rpm at 4° C. to remove cells and debris and stored at −70° C. for analysis of Prostaglandin E2 (PGE2) responses by ELISA. Cells were fixed, permeabilized and blocked for detection of COX2 using a fluorogenic substrate. In selected experiment cells were stimulated 12 hours in vitro for analysis of COX2, PGE2 and cytokine responses.
(§4) COX2 and PGE2 responses were analyzed as described in Example 3. Cytokine responses were analyzed as described in Example 2.

[2] = system: PGE2 secretion by normal human bladder smooth muscle cells; assay: PGE2 ELISA of normal human bladder smooth muscle cell supernatants; type: cell-based; settings: for effect on the LPS-induced PGE2 responses: analgesic at either 5 μM or 50 μM
Method: Prostaglandin E2 responses were analyzed by a sequential competitive ELISA (R&D Systems). More specifically, culture supernatants or PGE2 standards were added to the wells of a 96-well polystyrene microplate coated with a goat anti-mouse polyclonal antibody. After one hour incubation on a microplate shaker, an HRP-conjugated PGE2 was added and plates incubated for an additional two hours at room temperature. The plates were then washed and HRP substrate solution added to each well. The color was allowed to develop for 30 min and the reaction stopped by addition sulfuric acid before reading the plate at 450 nm with wavelength correction at 570 nm. Results are expressed as mean pg/ml of PGE2.
as §1, §2, §3, §4

[3] = system: expression of co-stimulatory molecules by Raw 264 macrophage cells; assay: Flow cytometry of co-stimulatory molecules CD40 and CD80 on macrophages treated with analgesic, with or without LPS; type: cell-based, Murine; settings: for effect on basal expression of co-stimulatory molecules CD40 and CD80 by macrophages: 5 × 10^5, 5 × 10^4, 5 × 10^3, 5 × 10^2, 50 and 5 nM
Method: Murine RAW264.7 or J774 macrophage cells (obtained from ATCC) were used in this study. Cells were maintained in a culture medium containing RPMI 1640 supplemented with 10% fetal bovine serum (FBS), 15 mM HEPES, 2 mM L-glutamine, 100 U/ml penicillin, and 100 μg/ml of streptomycin. Cells were cultured at 37° C. in a 5% CO2 atmosphere and split (passages) once a week.
RAW264.7 macrophage cells were seeded in 96-well plates at a cell density of 1.5×10^5 cells per well in 100 μl of the culture medium. […] Briefly, the analgesics were dissolved in FBS-free culture medium (i.e., RPMI 1640 supplemented with 15 mM HEPES, 2 mM L-glutamine, 100 U/ml penicillin, and 100 μg/ml of streptomycin), and diluted to desired concentrations by serial dilution with the same medium. For cells treated with analgesic in the absence of LPS, 50 μl of analgesic solution and 50 μl of FBS-free culture medium were added to each well. For cells treated with analgesic in the presence of LPS, 50 μl of analgesic solution and 50 μl of LPS (from Salmonella typhimurium) in FBS-free culture medium were added to each well. All conditions were tested in duplicates.
After 24 or 48 hours of culture, 150 μl of culture supernatants were collected, spun down for 2 min at 8,000 rpm at 4° C. to remove cells and debris and stored at −70° C. for analysis of cytokine responses by ELISA. The cells were collected and washed by centrifugation (5 min at 1,500 rpm at 4° C.) in 500 μl of Phosphate buffer (PBS). Half of the cells were then snap frozen in liquid nitrogen and stored at −70° C. The remaining cells were stained with fluorescent monoclonal antibodies and analyzed by flow cytometry.
For flow cytometry analysis, macrophages were diluted in 100 μl of FACS buffer (phosphate buffered saline (PBS) with 2% bovine serum albumin (BSA) and 0.01% NaN3) and stained 30 min at 4° C. by addition of FITC-conjugated anti-CD40, PE-conjugated anti-CD80, PE-conjugated anti-CD86 antibody, anti MHC class II (I-A^d) PE (BD Bioscience). Cells were then washed by centrifugation (5 min at 1,500 rpm at 4° C.) in 300 μl of FACS buffer. After a second wash, cells were re-suspended in 200 μl of FACS buffer and the percentage of cells expressing a given marker (single positive), or a combination of markers (double positive) were analyzed with the aid of an Accuri C6 flow cytometer (BD Biosciences).

[4] = adult humans; cited from earlier work
[5] = stimulus alone, no analgesic (Carbachol 10^−3 M; LPS 10 μg/ml), unstimulated <20.5
[6] = analgesic alone, 5 nM, negative control 20.6
[7] = analgesic alone, 50 nM, negative control 20.6
[8] = analgesic alone, 500 nM, negative control 20.6
[9] = analgesic alone, 5 × 10^3 nM, negative control 20.6
[10] = analgesic alone, 5 × 10^4 nM, negative control 20.6
[11] = analgesic alone, 5 × 10^5 nM, negative control 20.6
[12] = analgesic alone, 5 × 10^6 nM, negative control 20.6
[13] = analgesic plus LPS, analgesic 5 nM, LPS 5 ng/ml alone 77.8
[14] = analgesic plus LPS, analgesic 50 nM, LPS 5 ng/ml alone 77.8
[15] = analgesic plus LPS, analgesic 500 nM, LPS 5 ng/ml alone 77.8
[16] = analgesic plus LPS, analgesic 5 × 10^3 nM, LPS 5 ng/ml alone 77.8
[17] = analgesic plus LPS, analgesic 5 × 10^4 nM, LPS 5 ng/ml alone 77.8
[18] = analgesic plus LPS, analgesic 5 × 10^5 nM, LPS 5 ng/ml alone 77.8
[19] = analgesic plus LPS, analgesic 5 × 10^6 nM, LPS 5 ng/ml alone 77.8
[20] = Carbachol 10^−3 M plus analgesic 50 μM, carbachol alone 437, unstimulated 230, mean of duplicates
[21] = Carbachol 10^−3 M plus analgesic 50 μM, carbachol alone 462, unstimulated 199
[22] = LPS (10 μg/ml) plus analgesic 5 μM, LPS alone 633, unstimulated 199
[23] = LPS (10 μg/ml) plus analgesic 5 μM, LPS alone 672, unstimulated 230, mean of duplicates
[24] = LPS (10 μg/ml) plus analgesic 50 μM, LPS alone 633, unstimulated 199
[25] = LPS (10 μg/ml) plus analgesic 50 μM, LPS alone 672, unstimulated 230, mean of duplicates
[26] = Carbachol 10^−3 M plus analgesic 50 μM, carbachol alone 104, unstimulated <20.5
[27] = Carbachol 10^−3 M plus analgesic 50 μM, carbachol alone 129, unstimulated <20.5, mean of duplicates
[28] = LPS (10 μg/ml) plus analgesic 5 μM, LPS alone 998
[29] = LPS (10 μg/ml) plus analgesic 5 μM, LPS alone 1125, mean of duplicates
[30] = LPS (10 μg/ml) plus analgesic 50 μM, LPS alone 998
[31] = LPS (10 μg/ml) plus analgesic 50 μM, LPS alone 1125, mean of duplicates

SMILES	effect on expression of the co-stimulatory molecules at the highest dose ([3]; 5 × 10^6 nM)	effect on basal expression of co-stimulatory molecules CD40 and CD80 by macrophages [3]	% Positive CD40+CD80+ [3, 6] [%]	% Positive CD40+CD80+ [3, 7] [%]	% Positive CD40+CD80+ [3, 8] [%]	% Positive CD40+CD80+ [3, 9] [%]	% Positive CD40+CD80+ [3, 10] [%]	% Positive CD40+CD80+ [3, 11] [%]	% Positive CD40+CD80+ [3, 13] [%]	% Positive CD40+CD80+ [3, 14] [%]	% Positive CD40+CD80+ [3, 15] [%]	% Positive CD40+CD80+ [3, 16] [%]	% Positive CD40+CD80+ [3, 17] [%]	% Positive CD40+CD80+ [3, 18] [%]	PGE2 levels (pg/ml) Subject 2 [2, 26] [pg/mL]	PGE2 levels (pg/ml) Subject 1 [2, 27] [pg/mL]	PGE2 levels (pg/ml) Subject 2 [2, 28] [pg/mL]	PGE2 levels (pg/ml) Subject 1 [2, 29] [pg/mL]	PGE2 levels (pg/ml) Subject 2 [2, 30] [pg/mL]	PGE2 levels (pg/ml) Subject 1 [2, 31] [pg/mL]	further results
C[N+](C)(C)CCOC(N)=O [Carbachol, carbachol]																					COX2 responses to stimulus alone ([1]; no analgesic): induced low, but significant COX2 responses; Total COX2 levels (Normalized RFUs) subject 2 ([1]; stimulus alone, no analgesic (Carbachol 10^−3 M; LPS 10 μg/ml), unstimulated 199): 462 Normalized RFUs; Total COX2 levels (Normalized RFUs) subject 1 ([1]; stimulus alone, no analgesic (Carbachol 10^−3 M; LPS 10 μg/ml), unstimulated 230): 437 Normalized RFUs; PGE2 production in response to stimulus alone ([2]; no analgesic): induced production of PGE2; PGE2 levels (pg/ml) Subject 1 [2, 5]: 129 pg/mL; PGE2 levels (pg/ml) Subject 2 [2, 5]: 104 pg/mL
COc1ccc2cc([C@H](C)C(=O)O)ccc2c1 [Naproxen]	enhance	inhibit	5.2	6.8	7.2	6.9	7.7	9.6	73	72	68.8	71.0	77.1	74.1	66	77	506	859	523	819	% Positive CD40+CD80+ [3, 12]: 37%; % Positive CD40+CD80+ [3, 19]: 66.0%; Total COX2 levels (Normalized RFUs) subject 1 [1, 20]: 296 Normalized RFUs; Total COX2 levels (Normalized RFUs) subject 2 [1, 21]: 354 Normalized RFUs; Total COX2 levels (Normalized RFUs) subject 2 [1, 22]: 501 Normalized RFUs; Total COX2 levels (Normalized RFUs) subject 1 [1, 23]: 458 Normalized RFUs; Total COX2 levels (Normalized RFUs) subject 2 [1, 24]: 458 Normalized RFUs; Total COX2 levels (Normalized RFUs) subject 1 [1, 25]: 409 Normalized RFUs; effect on the effect of carbachol and LPS on COX2 levels [1]: suppress; effect on the LPS-induced PGE2 responses [2]: suppress; Maximum serum levels after oral therapeutic doses [4]: ≤ 60 mg/L
CC(=O)Oc1ccccc1C(=O)O [Aspirin, Acetylsalicylic acid]	enhance	inhibit	7.5	10.5	8	8.3	10.3	11	65.7	70.1	75.8	74.7	78.7	80	59	89	598	838	534	812	% Positive CD40+CD80+ [3, 12]: 44%; % Positive CD40+CD80+ [3, 19]: 84.5%; Total COX2 levels (Normalized RFUs) subject 1 [1, 20]: 312 Normalized RFUs; Total COX2 levels (Normalized RFUs) subject 2 [1, 21]: 297 Normalized RFUs; Total COX2 levels (Normalized RFUs) subject 2 [1, 22]: 491 Normalized RFUs; Total COX2 levels (Normalized RFUs) subject 1 [1, 23]: 472 Normalized RFUs; Total COX2 levels (Normalized RFUs) subject 2 [1, 24]: 484 Normalized RFUs; Total COX2 levels (Normalized RFUs) subject 1 [1, 25]: 413 Normalized RFUs; effect on the effect of carbachol and LPS on COX2 levels [1]: suppress; effect on the LPS-induced PGE2 responses [2]: suppress; Maximum serum levels after oral therapeutic doses [4]: 30 to 100 mg/L
CC(C)Cc1ccc(C(C)C(=O)O)cc1 (stereo not drawn) [Ibuprofen, ibuprofen]	enhance	inhibit	5.8	4.9	6.0	7.9	7.7	6.4	60.3	63.7	71.1	72.9	77.9	67	73	84	527	824	501	821	effect on the LPS-induced PGE2 responses [2]: suppress; Maximum serum levels after oral therapeutic doses [4]: 24 to 32 mg/L
